In patent publication US20240059693A1, “FUSED BICYCLIC PYRAZOLE DERIVATIVES AND METHODS OF USE THEREOF FOR THE TREATMENT OF HERPESVIRUSES” (Merck Sharp & Dohme LLC, priority 2020, published 2024) one finds IC50 and EC50 data, which are given here for 13 molecules.

pEC50, pIC50: −log10 of the molar value. Where two headings read alike, the source gives them in different places.

The target in assay [1] is T1, Human cytomegalovirus DNA polymerase (Human cytomegalovirus, UniProt P08546).
T1 construct: made in house; host or cells: SF21 insect cells (baculovirus vector)
T1 sequence (P08546 whole entry): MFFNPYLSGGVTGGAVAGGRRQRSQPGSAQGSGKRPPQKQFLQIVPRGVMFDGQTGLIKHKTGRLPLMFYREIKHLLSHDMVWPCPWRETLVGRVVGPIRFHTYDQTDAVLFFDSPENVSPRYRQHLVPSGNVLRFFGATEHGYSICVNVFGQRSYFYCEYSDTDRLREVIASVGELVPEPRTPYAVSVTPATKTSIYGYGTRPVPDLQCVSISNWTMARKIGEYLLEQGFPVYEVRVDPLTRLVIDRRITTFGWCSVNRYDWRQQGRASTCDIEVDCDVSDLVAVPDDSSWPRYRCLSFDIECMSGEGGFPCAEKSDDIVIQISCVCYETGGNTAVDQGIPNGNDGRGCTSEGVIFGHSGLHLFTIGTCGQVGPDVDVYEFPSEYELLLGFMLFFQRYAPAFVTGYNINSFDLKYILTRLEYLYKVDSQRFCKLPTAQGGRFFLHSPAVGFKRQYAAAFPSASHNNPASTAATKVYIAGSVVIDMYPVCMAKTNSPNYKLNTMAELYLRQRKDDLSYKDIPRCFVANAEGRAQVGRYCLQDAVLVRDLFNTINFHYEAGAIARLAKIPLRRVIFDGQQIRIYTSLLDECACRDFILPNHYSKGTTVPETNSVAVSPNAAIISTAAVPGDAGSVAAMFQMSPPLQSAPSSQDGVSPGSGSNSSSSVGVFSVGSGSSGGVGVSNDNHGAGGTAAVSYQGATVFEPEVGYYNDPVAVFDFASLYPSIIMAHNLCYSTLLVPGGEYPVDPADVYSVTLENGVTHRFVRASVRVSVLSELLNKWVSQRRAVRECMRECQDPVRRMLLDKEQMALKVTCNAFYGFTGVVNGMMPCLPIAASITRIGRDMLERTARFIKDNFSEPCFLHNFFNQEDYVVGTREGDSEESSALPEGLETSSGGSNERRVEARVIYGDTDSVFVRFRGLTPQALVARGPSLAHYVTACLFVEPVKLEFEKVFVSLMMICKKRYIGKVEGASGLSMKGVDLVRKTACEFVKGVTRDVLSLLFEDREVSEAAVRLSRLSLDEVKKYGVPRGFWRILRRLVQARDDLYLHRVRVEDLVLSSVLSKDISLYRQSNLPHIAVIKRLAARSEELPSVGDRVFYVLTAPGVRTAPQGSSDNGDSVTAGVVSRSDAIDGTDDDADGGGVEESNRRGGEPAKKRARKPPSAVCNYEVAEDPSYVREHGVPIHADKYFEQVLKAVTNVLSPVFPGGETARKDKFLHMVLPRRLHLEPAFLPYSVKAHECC
In words: HCMV polymerase assay (AlphaLISA). The settings on record: HCMV DNA polymerase 0.2 nM, 60 minutes at 37° C.; read-out: CMV (IC50). The assay is classed as biochemical. The method, boiled down:
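Baculovirus/SF21-expressed polymerase (HCMV 0.2 nM; VZV 0.4 nM) pre-incubated 30 min at room temperature with compound in HEPES pH 7.5 buffer, then 60 min at 37 °C with 1.6 nM DIG-primer/template, sub-nM to 24 nM dNTPs and 0.8 nM biotin-dUTP. AlphaLISA detection; IC50 from 4-parameter fit.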

The target in assay [2] is T2, varicella zoster virus DNA polymerase (Varicella-zoster virus, UniProt P09252).
T2 construct: made in house; host or cells: SF21 insect cells (baculovirus vector)
T2 sequence (P09252 whole entry): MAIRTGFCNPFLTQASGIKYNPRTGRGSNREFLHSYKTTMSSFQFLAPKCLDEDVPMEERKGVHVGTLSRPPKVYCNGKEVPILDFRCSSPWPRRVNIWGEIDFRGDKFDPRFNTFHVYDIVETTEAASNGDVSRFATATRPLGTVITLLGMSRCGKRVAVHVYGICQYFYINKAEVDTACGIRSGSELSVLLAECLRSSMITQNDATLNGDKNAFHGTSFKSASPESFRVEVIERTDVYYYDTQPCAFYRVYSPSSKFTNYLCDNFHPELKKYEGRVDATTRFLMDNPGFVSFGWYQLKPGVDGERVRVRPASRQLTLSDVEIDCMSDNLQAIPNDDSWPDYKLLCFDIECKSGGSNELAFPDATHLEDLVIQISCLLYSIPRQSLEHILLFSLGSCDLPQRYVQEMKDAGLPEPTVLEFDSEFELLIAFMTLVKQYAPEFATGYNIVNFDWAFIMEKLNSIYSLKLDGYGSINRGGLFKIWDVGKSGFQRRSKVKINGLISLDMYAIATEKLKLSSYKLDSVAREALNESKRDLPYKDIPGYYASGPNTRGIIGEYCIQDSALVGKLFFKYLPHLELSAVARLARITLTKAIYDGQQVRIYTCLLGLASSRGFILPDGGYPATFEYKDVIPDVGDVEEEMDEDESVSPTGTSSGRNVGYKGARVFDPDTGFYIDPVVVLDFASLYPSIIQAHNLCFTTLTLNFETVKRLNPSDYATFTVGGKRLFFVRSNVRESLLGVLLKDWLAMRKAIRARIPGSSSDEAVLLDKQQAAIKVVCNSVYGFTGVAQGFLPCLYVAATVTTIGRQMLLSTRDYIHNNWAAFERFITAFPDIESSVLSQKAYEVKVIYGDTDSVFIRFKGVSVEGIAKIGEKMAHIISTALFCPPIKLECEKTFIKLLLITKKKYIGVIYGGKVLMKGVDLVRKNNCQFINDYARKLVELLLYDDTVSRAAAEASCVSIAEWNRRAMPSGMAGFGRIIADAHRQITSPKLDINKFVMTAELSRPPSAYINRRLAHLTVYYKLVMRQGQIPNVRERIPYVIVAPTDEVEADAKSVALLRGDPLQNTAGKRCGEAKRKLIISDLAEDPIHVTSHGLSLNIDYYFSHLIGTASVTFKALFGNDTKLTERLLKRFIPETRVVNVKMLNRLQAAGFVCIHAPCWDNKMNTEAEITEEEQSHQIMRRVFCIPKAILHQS
In words: VZV polymerase assay (AlphaLISA). The assay is classed as biochemical. The settings on record: VZV DNA polymerase 0.4 nM, 60 minutes at 37° C. On the procedure: Human cytomegalovirus and varicella zoster virus DNA polymerases were expressed via baculovirus vector in SF21 cells and purified. Heterodimeric nucleic acid substrate used in the herpesvirus polymerase reactions was generated by annealing a 59-mer template to a 17-mer digoxigenin-labeled primer. Polymerase (HCMV final concentration of 0.2 nM; VZV final concentration of 0.4 nM) was combined with an inhibitor compound or DMSO in assay buffer (10 mM HEPES, pH 7.5, 25 mM KCl, 25 mM NaCl, 5 mM MgCl2, 5% glycerol, 0.67 mg/ml bovine serum albuminutes, and 1 mM tris(2-carboxyethyl)phosphine), and this mixture was pre-incubated for 30 minutes at room temperature in 384-well microtiter plates. The polymerization reaction was initiated by the addition of template/primer substrate (final concentration: 1.6 nM), and dNTPs (final concentration: 24 nM dCTP, 24 nMdGTP, 16 nM dATP, 16 nM dTTP, and 0.8 nM biotin-dUTP). After 60 minutes incubation at 37° C., reactions were terminated with quench buffer (25 mM HEPES pH 7.5, 100 mM NaCl, 0.25% Tween-20, 12 mM EDTA, and 1 mg/ml bovine serum albumin). Incorporation of biotinylated UTP was detected with 2.5-ug/ml anti-DIG AlphaLISA acceptor beads and 5-10 ug/ml streptavidin AlphaLISA donor beads (Perkin Elmer). Compound effects were normalized to the window defined by the controls (DMSO only and pre-quenched wells) and were fit using a 4-parameter algorithm to report an IC50.

Assay [3] has as its system HCMV Strain AD169. The assay is described as follows: Viral qPCR assay, HCMV in MRC-5 cells. The assay is classed as cell-based, Human cytomegalovirus. The settings on record: read-out: CMV MRC5 Cell (EC50). A digest of the protocol:
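MRC-5 cells infected in suspension with HCMV AD169 (0.05-0.1 pfu/cell) and added to 10-point 3-fold compound dilutions, in growth media or media with 50% FBS. After ~72 h at 37 °C, lysates analysed by TaqMan qPCR against a plasmid standard curve, viral copies normalised to PPIA or not. EC50 from 4-parameter fit.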
Background: Real-time PCR tracks product formation cycle by cycle.

In assay [4] the test system is HSV-1 Strain F. The assay is described as follows: Viral qPCR assay, HSV-1 in Vero cells. The settings on record: read-out: HSV1 VERO Cell (EC50). The assay is classed as cell-based, Herpes Simplex Virus type 1. How it is done: (§1) MRCS cells, Vero cells, and MeWo cells were obtained from ATCC and were maintained at 37° C./5% CO2/90% relative humidity in Minimal Essential Medium with 10% fetal bovine serum, […] L-glutamine, 100 units/ml penicillin and 100 ug/ml streptomycin. Assay plates were prepared by dispensing compounds dissolved in DMSO into wells of 384 well collagen-coated plates using an ECHO acoustic dispenser. Each compound was tested in a 10-point, serial 3-fold dilution. Controls included uninfected cells and infected cells treated only with DMSO. Assays were initiated by mixing selected cells, in suspension, with virus, and dispensing 50 μl/well infected cells to pre-plated compounds. Plates were incubated at 37° C./5% CO2/90% relative humidity for ˜72 hrs to permit genomic replication, and infected cells were lysed by the addition of an equal volume of lysis buffer (10 mM Tris-HCl, pH8, 50 mM KCl, 2 mM MgCl2, 0.45% NP-40, 0.45% Tween-20, and 100 μg/ml proteinase K). An aliquot of the lysate was transferred to a 384-well PCR plate and incubated at 56° C. for 1 hour and then at 95° C. for 10 min. Levels of a viral gene and of the cellular control, PPIA (Thermo Fisher Assay ID=Hs04194521_s1), were measured in separate 10 μL qPCR assays using TaqMan® Gene Expression Master Mix (Applied Biosystems), and an 7900HT Fast Real-Time PCR System with 384-Well Block Module. 7-point, serial 10-fold dilutions of a plasmid standard were run on each plate to generate a standard curve, and genome copies numbers were calculated by plotting experimental Ct onto linear regression of the standard curve. Viral genome copy numbers were normalized by cellular control copy number, and compound effects were normalized to the window defined by the controls. Calculated % effects were fit using a 4-parameter algorithm, and EC50 was reported.
as §1, with “gene” for “gene and of the cellular control, PPIA (Thermo Fisher Assay ID=Hs04194521_s1),”, “in” for “in separate”, “Compound effects on viral” for “Viral”, “number” for “numbers were normalized by cellular control copy number, and compound effects”
VZV: Strain Street was maintained as an infected cell stock in MRC-5 cells. It was assayed in MeWo or MRCS cells and was used at 0.04-0.1 pfu/cell. The assays were performed in growth medium. Primer-probe set was Thermo Fisher Assay ID=AIPAEXQ. HSV-1: Strain F Street was assayed in Vero or MRCS cells and was used at 0.0005-0.004 pfu/cell in growth medium. Primer-probe set was Thermo Fisher Assay ID=AIBJZIB

Assay [5] relates to HSV2. In words: Viral qPCR assay, HSV2 in Vero cells. The format is cell-based, Herpes Simplex Virus type 2. Conditions: read-out: HSV2 VERO Cell (EC50). On the procedure:
as §1
as §1, with “gene” for “gene and of the cellular control, PPIA (Thermo Fisher Assay ID=Hs04194521_s1),”, “in” for “in separate”, “Compound effects on viral” for “Viral”, “number” for “numbers were normalized by cellular control copy number, and compound effects”

Setting [6] is: Human betaherpesvirus 5, AD169, MRC5, 72 h.
The mark [7] stands for this setting: Human alphaherpesvirus 1, Vero, 72 h.
Setting [8] is: Human alphaherpesvirus 2, Vero, 72 h.

For orientation: pIC50 means the IC50 on a negative log10 scale, so that one unit is a factor of ten. In general, pEC50 refers to the negative decadic logarithm of the EC50, by convention in mol/L. For `CN1CC(n2nc(C(=O)NCc3ccc(Cl)cc3)c3c2CC(C[C@H]2CCC(=O)N2)C3)C1` (some centres unmarked) [Compound 137], the values for the pIC50 in assay [1] and in assay [2] were 6.76 and 7.30, respectively. Also, the pEC50 in assay [3] (setting [6]) was 5.11; in assay [4] (setting [7]), 4.58; in assay [5] (setting [8]) it was 4.25.
As for `O=C1CC[C@H](CC2Cc3c(C(=O)NCc4ccc(Cl)cc4)nn(CCN4CC(F)C4)c3C2)N1` (some centres unmarked) [Compound 132], the pIC50 in assay [1] is 7.67; in assay [2], 7.89. Further, the pEC50 in assay [3] (setting [6]) was 5.53; in assay [4] (setting [7]), 5.14; in assay [5] (setting [8]), 5.03.
Turning to `CC(C)n1nc(C(=O)NCc2ccc(Cl)cc2)c2c1CN(C[C@H]1CCC(=O)N1)C2` [Compound 35], the figures for the pIC50 in assay [1] and in assay [2] were 7.26 and 7.51, respectively. Moreover, the pEC50 was 5.57 in assay [3] (setting [6]), 5.73 in assay [4] (setting [7]) and 6.24 in assay [5] (setting [8]).
For `O=C1CC[C@H](CN2Cc3c(C(=O)NCc4ccc(Cl)cc4)nn(CC4(CF)COC4)c3C2)N1` [Compound 41], in that order: 6.96, 7.63, 5.20, 4.69 and 4.51.
For the molecule `CC1c2c(c(C(=O)NCc3ccc(Cl)cc3)nn2C)CN1C[C@H]1CCC(=O)N1` (single isomer, unassigned) [Compound 107], the negative-log IC50 (pIC50) in assay [1] was 5.34; in assay [2] it was 5.82. Further, the pEC50 in assay [3] (MRC5 cells, ~72 hrs) was 4.00; in assay [4] (~72 hrs) it was 4.13; in assay [5] (~72 hrs) it was 4.04.
For the molecule `CC(C1CC(F)(F)C(=O)N1)N1Cc2c(C(=O)NCc3ccc(Cl)cc3)nn(C)c2C1` (centres unmarked) [Compound 86], the values for the pIC50 in assay [1] and in assay [2] were 7.74 and 7.43, respectively. Moreover, the pEC50 in assay [3] (MRC5 cells, ~72 hrs) is 6.21; in assay [4] (~72 hrs), 5.77; in assay [5] (~72 hrs), 5.63.
Take `Cn1nc(C(=O)NCc2ccc(Cl)cc2)c2c1CC(CC1CCC(=O)N1)C2` (single isomer, unassigned) [Compound 130]: the pIC50 in assay [1] and in assay [2] was 8.35 throughout. Moreover, the negative logarithm of the EC50 (pEC50) in assay [3] (MRC5 cells, ~72 hrs) is 5.92; in assay [4] (~72 hrs), 5.42; in assay [5] (~72 hrs), 5.39.
For `Cn1nc(C(=O)NCc2ccc(Cl)cc2F)c2c1CN(C[C@H]1CCC(=O)N1)C2` [Compound 61], the pIC50 was 6.46 in assay [1] and 6.72 in assay [2]. Also, the figures for the pEC50 in assay [3] (setting [6]), in assay [4] (setting [7]) and in assay [5] (setting [8]) were 5.70, 4.51 and 4.42, respectively.
As for `CCC1(Cn2nc(C(=O)NCc3ccc(Cl)cc3)c3c2CN(C[C@H]2CCC(=O)N2)C3)COC1` [Compound 40], the negative-log IC50 (pIC50) was 7.05 in assay [1] and 7.04 in assay [2]. In addition, the pEC50 in assay [3] (setting [6]) was 5.28; in assay [4] (setting [7]), 4.63; in assay [5] (setting [8]), 4.46.
As for `O=C1CC[C@@H](CN2Cc3c(C(=O)NCc4ccc(Cl)cc4)nn(C(F)F)c3C2)N1` [Compound 46], the negative-log IC50 (pIC50) in assay [1] was 7.16; in assay [2], 7.64. Besides, the pEC50 in assay [3] (MRC5 cells, ~72 hrs) was 6.15; in assay [4] (~72 hrs), 6.67; in assay [5] (~72 hrs), 6.28.
For the molecule `O=C1CC[C@H](CN2Cc3c(C(=O)NCc4ccc(Cl)cc4)nn(CC4(F)COC4)c3C2)N1` [Compound 37], the pIC50 in assay [1] was 7.63; in assay [2] it was 7.22. Further, the negative-log EC50 (pEC50) in assay [3] (setting [6]) is 5.48; in assay [4] (setting [7]), 4.81; in assay [5] (setting [8]), 4.63.
As for `Cn1nc(C(=O)NCc2ccc(Cl)cc2)c2c1CC(O)(CC1CCC(=O)N1)C2` (single isomer, unassigned) [Compound 140], the pIC50 in assay [1] is 7.20; in assay [2], 7.58. The pEC50 was 5.58 in assay [3] (MRC5 cells, ~72 hrs); 6.36 in assay [4] (~72 hrs); 6.15 in assay [5] (~72 hrs).
Consider `O=C1CC[C@H](CN2Cc3c(C(=O)NCc4ccc(Cl)cc4)nn(CC4CCO4)c3C2)N1` (some centres unmarked) [Compound 39], for which the pIC50 in assay [1] is 7.26; in assay [2], 7.35. The figures for the negative-log EC50 (pEC50) in assay [3] (setting [6]), in assay [4] (setting [7]) and in assay [5] (setting [8]) were 5.80, 4.91 and 4.79, respectively.
